Test results from ChEMBL document CHEMBL1147190, “Acid-catalyzed synthesis of oxathiolone fused chalcones. Comparison of their activity toward various microorganisms and human cancer cells line” (Eur J Med Chem, 2007).
≈ marks a conversion by molar mass, not a printed value.

Experiments:
Escherichia coli = experiment: Bacteriostatic activity against Escherichia coli ATCC 11775 after 24 hrs by serial dilution microtiter plate method; assay type: functional, organism-based; settings: ATCC 11775, 24 h
Proteus vulgaris = experiment: Bacteriostatic activity against Proteus vulgaris ATCC 6380 after 24 hrs by serial dilution microtiter plate method; assay type: functional, organism-based; settings: ATCC 6380, 24 h
[1] = system: Mycobacterium tuberculosis; experiment: Tuberculostatic activity against Mycobacterium tuberculosis H37Rv; assay type: functional
Mycobacterium kansasii = experiment: Tuberculostatic activity against Mycobacterium kansasii; assay type: functional
Candida albicans = experiment: Antifungal activity against Candida albicans ATCC 10261 after 48 hrs by serial dilution microtiter plate method; assay type: functional, organism-based; settings: ATCC 10261, 48 h
Micrococcus luteus = experiment: Bacteriostatic activity against Micrococcus luteus after 24 hrs by serial dilution microtiter plate method; assay type: functional, organism-based
Staphylococcus aureus = experiment: Bacteriostatic activity against Staphylococcus aureus ATCC 9144 after 24 hrs by serial dilution microtiter plate method; assay type: functional, organism-based; settings: ATCC 9144, 24 h
Salmonella typhimurium = experiment: Bacteriostatic activity against Salmonella Typhimurium PCM 2180 after 24 hrs by serial dilution microtiter plate method; assay type: functional, organism-based, Salmonella enterica subsp. enterica serovar Typhimurium; settings: Salmonella enterica
HeLa = experiment: Cytotoxicity against human HeLa S3 cells after 120 hrs by MTT assay; assay type: functional, cell-based

Row | SMILES | IC50 (Escherichia coli) | IC50 (Proteus vulgaris) | MIC [1] | MIC (Mycobacterium kansasii) | IC50 (Candida albicans) | IC50 (Micrococcus luteus) | IC50 (Staphylococcus aureus) | IC50 (Salmonella typhimurium) | IC50 (HeLa)
1 | COc1ccc2oc(=O)sc2c1C(=O)/C=C/c1ccc([N+](=O)[O-])cc1 | > 1000 µg/mL | > 1000 µg/mL | > 100 µg/mL | > 100 µg/mL | > 1000 µg/mL | > 1000 µg/mL | > 1000 µg/mL | > 1000 µg/mL | –
2 | COc1ccc2oc(=O)sc2c1C(=O)/C=C/c1ccc(N(C)C)cc1 | > 1000 µg/mL | > 1000 µg/mL | > 100 µg/mL | > 100 µg/mL | > 1000 µg/mL | > 1000 µg/mL | > 1000 µg/mL | > 1000 µg/mL | > 100 µM
3 | COc1ccc2oc(=O)sc2c1C(=O)/C=C/c1ccc(Br)cc1 | > 1000 µg/mL | > 1000 µg/mL | > 100 µg/mL | > 100 µg/mL | > 1000 µg/mL | > 1000 µg/mL | > 1000 µg/mL | > 1000 µg/mL | –
4 | COc1ccc2oc(=O)sc2c1C(=O)/C=C/c1cccc(Cl)c1 | > 1000 µg/mL | > 1000 µg/mL | 25 µg/mL (≈ 72.1 µM) | 100 µg/mL (≈ 288 µM) | > 1000 µg/mL | > 1000 µg/mL | > 1000 µg/mL | > 1000 µg/mL | –
5 | COc1ccc(/C=C/C(=O)c2c(OC)ccc3oc(=O)sc23)cc1OC | > 1000 µg/mL | > 1000 µg/mL | > 100 µg/mL | > 100 µg/mL | > 1000 µg/mL | > 1000 µg/mL | > 1000 µg/mL | > 1000 µg/mL | 14.1 µM
6 | COc1ccc2oc(=O)sc2c1C(=O)/C=C/c1ccc(Cl)cc1 | > 1000 µg/mL | > 1000 µg/mL | 100 µg/mL (≈ 288 µM) | > 100 µg/mL | 62.5 µg/mL (≈ 180 µM) | 15.6 µg/mL (≈ 45 µM) | 7.8 µg/mL (≈ 22.5 µM) | > 1000 µg/mL | 5.2 µM
7 | COc1ccc2oc(=O)sc2c1C(=O)/C=C/c1ccccc1 | > 1000 µg/mL | > 1000 µg/mL | > 100 µg/mL | > 100 µg/mL | > 1000 µg/mL | > 1000 µg/mL | > 1000 µg/mL | > 1000 µg/mL | 8.4 µM
8 | COc1ccc2oc(=O)sc2c1C(=O)/C=C/c1ccc(OCCN(C)C)cc1 | 125 µg/mL (≈ 313 µM) | 125 µg/mL (≈ 313 µM) | 100 µg/mL (≈ 250 µM) | 100 µg/mL (≈ 250 µM) | 125 µg/mL (≈ 313 µM) | 15.6 µg/mL (≈ 39.1 µM) | 15.6 µg/mL (≈ 39.1 µM) | 250 µg/mL (≈ 626 µM) | 8.3 µM
9 | COc1ccc2oc(=O)sc2c1C(=O)/C=C/c1ccccc1Cl | > 1000 µg/mL | > 1000 µg/mL | 50 µg/mL (≈ 144 µM) | > 100 µg/mL | > 1000 µg/mL | > 1000 µg/mL | > 1000 µg/mL | > 1000 µg/mL | –
10 | COc1ccc(/C=C/C(=O)c2c(OC)ccc3oc(=O)sc23)cc1 | > 1000 µg/mL | > 1000 µg/mL | > 100 µg/mL | > 100 µg/mL | > 1000 µg/mL | > 1000 µg/mL | > 1000 µg/mL | > 1000 µg/mL | –
11 | COc1ccc2oc(=O)sc2c1C(=O)/C=C/c1ccc(OCCN2CCOCC2)cc1 | 125 µg/mL (≈ 283 µM) | 125 µg/mL (≈ 283 µM) | 50 µg/mL (≈ 113 µM) | > 100 µg/mL | 250 µg/mL (≈ 566 µM) | 31.2 µg/mL (≈ 70.7 µM) | 31.2 µg/mL (≈ 70.7 µM) | 250 µg/mL (≈ 566 µM) | –
